Activity calls are given as the source filed them.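 The calls were made as follows: active = more than half of replicate measurements showing over 20% loss of kinase signal relative to plate controls; inconclusive = some but at most half of replicates over 20% loss; inactive = no replicate over 20% signal loss.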
Target: Glycogen synthase kinase-3 alpha (Homo sapiens) (UniProt P49840)
Assay: concentration-response blocking of human GSK3A – biochemical, luminescence, cell-free homogeneous, retest, dose response (AID 463203)
Conditions: GSK-3 alpha enzyme, ADP-Glo luminescence, 60 min

Glycogen synthase kinase-3 alpha (Homo sapiens), sequence (P49840 whole entry, looked up): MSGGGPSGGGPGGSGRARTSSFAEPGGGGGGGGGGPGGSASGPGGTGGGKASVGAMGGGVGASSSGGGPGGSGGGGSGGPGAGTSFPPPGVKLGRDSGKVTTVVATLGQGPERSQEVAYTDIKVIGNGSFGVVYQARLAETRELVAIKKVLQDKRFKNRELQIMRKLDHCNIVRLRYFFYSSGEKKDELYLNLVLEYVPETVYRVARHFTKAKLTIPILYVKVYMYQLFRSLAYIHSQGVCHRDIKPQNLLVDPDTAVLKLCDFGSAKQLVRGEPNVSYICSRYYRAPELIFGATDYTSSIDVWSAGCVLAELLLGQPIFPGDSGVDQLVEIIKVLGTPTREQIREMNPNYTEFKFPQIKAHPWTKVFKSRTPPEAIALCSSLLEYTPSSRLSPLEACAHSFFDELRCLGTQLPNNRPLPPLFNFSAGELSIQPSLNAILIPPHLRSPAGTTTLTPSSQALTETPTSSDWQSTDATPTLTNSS

| Compound | AC50 |
| --- | --- |
| O=C(COC(=O)Cc1ccc(F)cc1)Nc1ccc(Cl)cn1 | 14.1 µM |
| CC1CCN(CCCNc2cc(NCCO)c([N+](=O)[O-])c3nonc23)CC1 | > 30 µM (inactive) |
| Cn1c(=O)c2c([nH]c(=O)n2C)n(Cc2ccccc2)c1=O | > 30 µM (inactive) |
| Cn1cc(C(=O)c2cccc(Cl)c2)cc1/C=N\O | 28.3 µM |
| Cc1ccc(N(CC(O)CN2CCCCC2)S(=O)(=O)c2ccc(C)cc2)cc1 (centres undefined) | > 30 µM (inactive) |
| CN(C(=O)CN1CC=C(c2ccccc2)CC1)c1c(N)n(Cc2ccccc2)c(=O)[nH]c1=O | > 30 µM (inactive) |
| CC(/C=N/NC(=O)c1nnn(-c2nonc2N)c1C(C)C)=C\c1ccco1 | > 30 µM (inactive) |
| Fc1ccc(Nc2ccnc(Nc3ccc(F)cc3)n2)cc1 | > 30 µM (inactive) |
| CC(C)NC(=O)Nc1ccc(Br)cc1Cl | > 30 µM (inactive) |
| O=C(CSc1ccccc1)Nc1nnc(C2CC2)s1 | > 30 µM (inactive) |
| Cc1ccc(S(=O)(=O)N2C(=O)/C(=C3\SC(=S)NC3=O)c3ccccc32)cc1 | > 30 µM (inactive) |
| C/C(=N\NC(=O)c1nnn(-c2nonc2N)c1-c1cccs1)c1ccc(O)cc1 | 1.17 µM |
| CN(C)C(=O)c1ccc(NC(=O)c2cc(-n3cnnc3)ccc2Cl)cc1 | > 30 µM (inactive) |
| COc1ccc(C(=O)c2sc(Nc3ccccc3)c(C(=O)Nc3ccc(OC)c(OC)c3)c2N)cc1 | > 30 µM (inactive) |
| CCc1c(C)sc(NC(=O)C2CC2c2ccccc2)c1C(N)=O (centres undefined) | > 30 µM (inactive) |
| Cc1ccc(NC(=S)Nc2ccc3cn[nH]c3c2)c(C)c1 | > 30 µM (inactive) |
| Clc1nccnc1N/N=C/c1ccc(Br)cc1 | > 30 µM (inactive) |
| CC(C)NC(=O)c1sc2nc3c(c(-c4cccs4)c2c1N)CN(C)CC3 | > 30 µM (inactive) |
| CCc1c(C)c(C#N)c2nc3ccccc3n2c1NC | > 30 µM (inactive) |
| Cc1onc(-c2ccccc2Cl)c1C(=O)Nc1cccc(-c2nc3ncccn3c2C)c1 | > 30 µM (inactive) |
| CN(C)c1cccc(C(=O)N/N=C/c2ccccc2F)c1 | > 30 µM (inactive) |
| Cc1ccnc(NC(=O)CCC(=O)N(CC(=O)NCc2ccc(F)cc2)CC2CCCO2)c1 (centres undefined) | 27.9 µM |
| CCOc1ccccc1-n1c(O)c(C=NCCCn2ccnc2)c(=O)[nH]c1=O | 20.5 µM |
| Cc1cccc(C(=O)Nc2cccc(C(=O)N/N=C/c3ccccn3)c2)c1 | 23.3 µM |
| CCOc1ccc(/C=C/C2=Cc3c(sc(NC(=O)CSc4n[nH]c(N)n4)c3C#N)C(C)(C)C2)cc1 | > 30 µM (inactive) |
| Cc1cc(C(=O)CN(Cc2ccc(F)cc2)S(=O)(=O)c2ccc3c(c2)OCCO3)c(C)n1C | > 30 µM (inactive) |

| Compound | AC50 |
| --- | --- |
| Cc1cccc2c(N=Nc3ccccc3)c(O)[nH]c12 | > 30 µM (inactive) |
| CC1=C(C(=O)OC2CCCCC2)C(c2cccs2)n2c(nc3ccccc32)N1 (centres undefined) | > 30 µM (inactive) |
| O=C(Nc1cccc(O)c1)c1ccc([N+](=O)[O-])cc1Cl | > 30 µM (inactive) |
| COc1ccccc1/C=C1\S/C(=N/NC(=O)c2cccc(Br)c2)NC1=O | > 30 µM (inactive) |
| CCOc1ccc(NC(=O)N(C2CCCCC2)C(C)c2cccnc2)cc1 (centres undefined) | > 30 µM (inactive) |
| CCOC(=O)c1cc(C)[nH]c1C | > 30 µM (inactive) |
| C[C@@H]1O[C@@H](O[C@H]2[C@H](O)[C@@H](O)[C@H](Oc3c(-c4ccc(O)c(O)c4)oc4cc(O)cc(O)c4c3=O)O[C@@H]2CO)[C@H](O)[C@H](O)[C@H]1O | > 30 µM (inactive) |
| CCN=C1S/C(=C/c2ccc(-c3ccc(Cl)cc3C(=O)O)o2)C(=O)N1CC | 4.3 µM |
| CCCCNc1nc(N)nc(-c2cc(Cl)ccc2O)n1 | 3.04 µM |
| Cc1ccc(-n2cnc(N)c2C(=O)c2cccc([N+](=O)[O-])c2)cc1 | 10.8 µM |
| CC(C)NC(=O)Nc1cccc(Cl)c1 | > 30 µM (inactive) |
| O=C(CSCc1ccc([N+](=O)[O-])cc1)NN=C1CCCCCC1 | > 30 µM (inactive) |
| CC(=O)c1sc(NC(=O)c2ccc3c(c2)OCO3)nc1C | > 30 µM (inactive) |
| CC(=O)c1cccc(-c2ccc3c(=O)[nH]c(Nc4ccccc4)cc3c2)c1 | > 30 µM (inactive) |
| Cc1cc(=O)[nH]c2c(C)c(N)ccc12 | > 30 µM (inactive) |
| N#CC1=C(SCc2ccccc2)NC(=O)CC1c1ccco1 (centres undefined) | > 30 µM (inactive) |
| O=C(CN1CCOCC1)Nc1cccc(Br)c1 | > 30 µM (inactive) |
| CCOC(=O)c1[nH]c2c(c1C)C(=O)CC(c1ccc(OC)c(OC)c1)C2 (centres undefined) | > 30 µM (inactive) |
| CCn1c(SCC(=O)Nc2nc3ccc(OC)cc3s2)nnc1-c1ccoc1C | 5.81 µM |
| O=C(NCCCN1CCOCC1)c1cc(Cl)ccc1[N+](=O)[O-] | > 30 µM (inactive) |
| COc1ccc(-c2noc(CCC(=O)Nc3nc4ccccc4s3)n2)cc1 | > 30 µM (inactive) |
| Cn1c(=O)c2c(nc(NCC3CCCO3)n2Cc2ccccc2)n(C)c1=O (centres undefined) | > 30 µM (inactive) |
| CCOC(=O)c1c(NC(=O)CN2C(=O)NC3(CCCCC3C)C2=O)sc(C(=O)N(C)C)c1C (centres undefined) | > 30 µM (inactive) |
| O=C(O)c1cccc(Nc2nc(-c3cccnc3)nc3ccccc23)c1 | 12.5 µM |
| CCOc1ccc2[nH]cc(S(=O)(=O)c3ccc(C)cc3)c(=O)c2c1 | > 30 µM (inactive) |
| O=S(=O)(O)c1cccc(N=Nc2c(O)ccc3ccccc23)c1 | 8.34 µM |

| Compound | AC50 |
| --- | --- |
| c1ccc2[nH]c(-c3ccncc3)nc2c1 | > 30 µM (inactive) |
| CCN1CCN(c2nc(N(C)c3ccccc3)nc(N)c2[N+](=O)[O-])CC1 | > 30 µM (inactive) |
| C[C@@H](NC(=O)c1[nH]cnc1C(=O)Nc1ccon1)c1ccccc1 | 11.6 µM |
| CC(=O)c1c(O)cc(O)cc1CC(=O)O | > 30 µM (inactive) |
| CCOC(=O)c1nnn(-c2nonc2N)c1-c1cccc2ccccc12 | 27.9 µM |
| COc1cc(O)c(NC(C)=O)c2nonc12 | > 30 µM (inactive) |
| CCN(CC)c1nc(N)c([N+](=O)[O-])c(NCCO)n1 | > 30 µM (inactive) |
| CCOC(=O)c1nc(NCc2ccccc2F)c2ccccc2n1 | > 30 µM (inactive) |
| c1cncc(-c2nc3ccccc3[nH]2)c1 | > 30 µM (inactive) |
| CS(=O)(=O)N1CCN(c2ccccc2NC(=O)c2cccs2)CC1 | > 30 µM (inactive) |
| COc1ccc(C(=O)O/N=C(\N)c2ccccc2)cc1 | 25 µM |
| CCOc1cc(-c2nc3c(C)cccn3c2NCC2CCCO2)ccc1O (centres undefined) | > 30 µM (inactive) |
| CCOC(=O)c1sc(NC(=O)C2CCC2)cc1C | > 30 µM (inactive) |
| CCOC(=O)c1c(NC(=O)Cc2cccs2)sc2c1CCCC2 | > 30 µM (inactive) |
| CC(=O)Nc1ccc(Nc2ncnc(N)c2[N+](=O)[O-])cc1 | > 30 µM (inactive) |
| COC(=O)c1ccc(CN2C(=O)NC(CC(C)C)C2=O)cc1 (centres undefined) | > 30 µM (inactive) |
| CCOC(=O)c1nnn(-c2nonc2-n2cccc2)c1C | > 30 µM (inactive) |
| O=C(Nc1ccccc1C(=O)N1CCOCC1)c1cccnc1 | > 30 µM (inactive) |
| COc1ccc(-c2nc3ncccn3c2Nc2ccccc2)cc1 | > 30 µM (inactive) |
| O=C(/C=C/c1cccc2ccccc12)c1ccncc1 | > 30 µM (inactive) |
| CCOC(=O)c1cnc2c(Cl)c(Cl)ccc2c1N1CCN(C)CC1 | > 30 µM (inactive) |
| S=C(NCCC1=CCCCC1)Nc1ccccc1 | > 30 µM (inactive) |
| O=c1oc2cc(O)ccc2c2ccccc12 | > 30 µM (inactive) |
| NC(=O)c1cn(-c2ccccc2)nc1-c1cccnc1 | > 30 µM (inactive) |
| CCOc1cccc(-c2c(C(=O)N/N=C(\C)c3cccnc3)nnn2-c2nonc2N)c1 | 5.21 µM |
| CCCNC(=O)OCCC12CC3CC(CC(C3)C1)C2 | > 30 µM (inactive) |

| Compound | AC50 |
| --- | --- |
| O=S(=O)(Nc1ccccc1O)c1cccc2cccnc12 | > 30 µM (inactive) |
| CCOC(=O)N1CC=C2C(C#N)=C(N)C(C#N)(C#N)[C@H](c3cccs3)C2C1 (some centres undefined) | 23.1 µM |
| C/C(=N\NC(=O)c1nnn(-c2nonc2N)c1-c1cccs1)c1cccnc1 | 1.33 µM |
| O=C1NC(=O)/C(=C/c2ccc(-c3cc(C(=O)O)ccc3Cl)o2)S1 | 13.5 µM |
| COc1cc(/C=C2/S/C(=N/S(=O)(=O)Cc3ccccc3)NC2=O)c([N+](=O)[O-])cc1OC | > 30 µM (inactive) |
| CCOC(=O)c1nnn(-c2ccc(OC)cc2)c1N | > 30 µM (inactive) |
| CCOc1cccc2sc(=NC(=O)c3ccco3)n(CC(=O)OC)c12 | 7.61 µM |
| O=c1[nH]ncc(N/N=C\c2cccs2)c1Cl | 6.07 µM |
| CCOC(=O)c1[nH]c2c(c1-c1ccccc1)C(=O)CC(c1ccccc1)C2 (centres undefined) | > 30 µM (inactive) |
| CC(C)NC(=O)NC(=O)CSc1nncn1C | > 30 µM (inactive) |
| COc1cccc(/C=N/NC(=O)C(=O)N2CCCC2)c1OC | > 30 µM (inactive) |
| Cc1c(O)ccc2c3c(c(=O)oc12)CCCC3 | 6.63 µM |
| Cc1ccc(-c2nnc3n2N=C(c2ccccc2Br)CS3)cc1 | > 30 µM (inactive) |
| CCCCc1ccc(NC(=O)N[C@@H](C)C(=O)O)cc1 | > 30 µM (inactive) |
| Fc1cccc(/C=N/Nc2ccccn2)c1 | > 30 µM (inactive) |
| Cc1ccc(OCC(=O)N2CCN(c3nnc(-c4ccccc4)c4ccccc34)CC2)cc1 | > 30 µM (inactive) |
| CN(C)C(=S)Nc1ccc([N+](=O)[O-])cc1 | > 30 µM (inactive) |
| CC(=O)OCC1OC(n2ccc(=O)[nH]c2=O)C(O)C1O (centres undefined) | > 30 µM (inactive) |
| COc1cc(C(=O)NCCC(=O)NCCN2CCOCC2)cc(OC)c1OC | > 30 µM (inactive) |
| C#CCOCCOCCOCCNc1nc(N2CCOCC2)nc(N2CCN(C(=O)[C@H](CCC(=O)O)n3cc([C@@H](N)CCCCN)nn3)CC2)n1 | > 30 µM (inactive) |
| Nc1c(C(=O)O)cnc2c(-c3ccc(Cl)cc3)cnn12 | 15.8 µM |
| CCn1c(C)nc2cc(-c3nc4n(n3)Cc3ccccc3-4)ccc21 | 16.1 µM |
| COC(=O)[C@H]1[C@H](CCc2ccccc2)NC(=O)N(Cc2ccccc2)[C@@H]1C | > 30 µM (inactive) |
| O=C(CCN1CCOCC1)Nc1cccc(Br)c1 | > 30 µM (inactive) |
| O=[N+]([O-])c1cccc(-c2ccn[nH]2)c1 | > 30 µM (inactive) |
| O=[N+]([O-])c1c(NCCCO)cc(Sc2nc3ccccc3s2)c2nonc12 | > 30 µM (inactive) |

— PubChem BioAssay AID463203 (Broad Institute, 2010)
